Test results as given in patent US20230123334A1, “AMINO LIPID COMPOUND, PREPARATION METHOD THEREFOR, AND APPLICATION THEREOF” (SHENZHEN SHENXIN BIOTECHNOLOGY CO., LTD., priority 2020, published 2023).

Experiments:
[1] = system: HEK293 cells; test: Preliminary screening as mRNA vectors, EGFP mRNA transfection of HEK293 cells; type: cell-based; details: HEK293 cells, 96-well plates, EGFP mRNA 50 ng per well; percentage of GFP fluorescent cells relative to total number of cells (Hoechst)
Method in brief: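 Each well of HEK293 cells received 50 ng of EGFP mRNA. Efficiency was expressed as percent GFP-expressing cells over Hoechst-defined total cell number.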

[2] = system: HEK293 cells; test: Preliminary screening as DNA vectors, GFP transfection of HEK293 cells; type: cell-based; details: HEK293 cells; lipid/DOPE liposome with 75 ng plasmid DNA (psin-EGFP-IRES-Puro); number of cells expressing GFP divided by total number of nuclei (Hoechst)
Method in brief: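 Lipid + DOPE liposomes (NaOAc, pH 5.6) complexed w/ 75 ng psin-EGFP-IRES-Puro, 30 min RT; added to 3-5×10^4 HEK293/well, 37° C. Hoechst 0.2 μg/mL at 20-24 h, imaged after further 20-24 h. Efficiency = GFP+ cells / total nuclei.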

SMILES	Absolute mRNA transfection efficiency in HEK293 cells [1] [%]	Absolute DNA transfection efficiency in HEK293 cells [2] [%]
CCCCCCCCCCSc1nc(NCCN2CCCC2)nc(SCCCCCCCCCC)n1 [Compound S10S10D3]	5.0	13.6
CCCCCCCCCCCCCCCCCCSc1nc(NCCN2CCN(C)CC2)nc(SCCCCCCCCC)n1 [Compound S9S18D5]	22.0	4.0
CCCCCCCCCCCCCCCCSc1nc(NCCN2CCN(C)CC2)nc(SCCCCCCCCCC)n1 [Compound S10S16D5]	13.6	9.4
CCCCCCCCCCCCCCCCCCSc1nc(NCCCN(C)C)nc(SCCCCCCCCCCCCCCC)n1 [Compound S15S18D6]	0.0	1.0
CCCCCCCCCCCCN(CCCCCCCCCCCC)c1nc(NCCCCCCC)nc(NCCN2CCCC2)n1 [N7^2N12D3]	6.8	2.5
CCCCCCCCCNc1nc(NCCCCCC)nc(NCCN2CCN(C)CC2)n1 [Compound N6N9D5]	0.1	0.0
CCCCCCCCCCCCCCCSc1nc(NCCN2CCCCC2)nc(SCCCCCCCCCC)n1 [Compound S10S15D4]	0.7	7.5
CCCCCCCCNc1nc(NCCCCCC)nc(NCCN2CCCC2)n1 [Compound N6N8D3]	0.4	0.1
CCCCCCCCCCCCCCCCNc1nc(NCCCCCCCCCCCCCCC)nc(NCCN2CCCC2)n1 [Compound N15N16D3]	6.1	2.5
CCCCCCCCCCCCCCCCCCSc1nc(NCC2CCN(C)CC2)nc(SCCCCCCCCCCCCCCC)n1 [Compound S15S18D10]	1.8	0.3
CCCCCCCCCCCCCNc1nc(NCCCCCCCC)nc(NCCCN2CCOCC2)n1 [Compound N8N13D8]	0.2	0.0
CCCCCCCCCCCCCCCSc1nc(NCC2CCN(C)CC2)nc(SCCCCCCCCCCC)n1 [Compound S11S15D10]	75.9	42.3
CCCCCCCCCCCCNc1nc(NCCCCCC)nc(NCCN(C)C)n1 [Compound N6N12D1]	0.2	0.0
CCCCCCCCCCCCCCCCCCNc1nc(NCCCCCCCCCCC)nc(NCCCN(C)C)n1 [Compound N11N18D6]	0.0	0.4
CCCCCCCNc1nc(NCCCCCC)nc(NCCN2CCOCC2)n1 [Compound N6N7D2]	0.4	0.0
CCCCCCCCCCCCCCCNc1nc(NCCCCCCCCCCCC)nc(NCCN2CCN(C)CC2)n1 [Compound N12N15D5]	3.1	0.4
CCCCCCCCCCCCCCCCNc1nc(NCCCCCCCC)nc(NCC2CCN(C)CC2)n1 [Compound N8N16D10]	1.5	3.4
CCCCCCCCCCCCNc1nc(NCCCCCCC)nc(NCCCN2CCN(C)CC2)n1 [Compound N7N12D9]	0.0	0.1
CCCCCCCCCCCNc1nc(NCCCCCCCC)nc(NCCN2CCN(C)CC2)n1 [Compound N8N11D5]	0.4	0.2
CCCCCCCCCCCCN(CCCCCCCCCCCC)c1nc(NCCCCCCCCC)nc(NCCN2CCCCC2)n1 [N9^2N12D4]	0.4	0.0
